# Experimental data reported in patent publication US20250304623A1, “PEPTIDES FOR INTRACELLULAR DELIVERY” (UNIVERSIDADE DE SANTIAGO DE COMPOSTELA, priority 2022, published 2025).
# Starred links: 1 amine or outer side, 2 acyl side, 3 side chain; linkers in the order of their positions; H or OH if unused. Residues, ends and D or L forms follow the SMILES beside them. Groups on a side chain read outwards from the residue. *: point of attachment. Glutaryl = O=C(CCCC(=O)[*:2])[*:1]; NHNH2 = NN*
# Tests used:
# Assay type in all cases: cell-based
# [1] = test system: HCT116 cells; assay: RLuc pDNA delivery, robotic library screening, HCT116
# [2] = test system: Hela cells; assay: RLuc pDNA delivery, robotic library screening, HeLa
# Experimental: Cells were seeded in a 96 well plate the day before the experiment at a concentration of 60,000 cell/mL (100 μL/w) in DMEM+10% FBS+1% Gln-Abt. For robotic library screening, the delivery of pDNA encoding for the expression of Renilla luciferase gene (RLuc, pRL-CMV (Promega, #E2261)) in six different cell lines was performed. […] The mixture was shaken for 30 min at room temperature before the addition to the cells. The cell medium was aspirated, and cells were washed twice with PBS. Finally, 50 μL of the complex's solution were added to the cells and incubated for 4 h. After the incubation, the medium was replaced by 100 μL of fresh DMEM supplemented with 10% FBS. 72 hours after transfection the DMEM was removed, cells were washed once with HBSS and 90 μL of HBSS were added to each well. Cells were incubated at 37° C. for 30 minutes. Then basal luminescence levels were read in a plate reader. Immediately, 10 μL of coelenterazine h in HBSS were added to each well (5 μM final concentration) and cells were incubated at 37° C. for 10 minutes. Finally, the total luminescence measurement of the plates was performed. Amphiphile transfection efficiency was compared and normalized to Lipofectamine® 2000 efficiency (value of 1 in Tables 1-5 and 7; bold numbers). All experiments were done in triplicate.
# (§1) Tables 1-7: RLuc (pDNA) or EGFP (mRNA) expression levels were normalized to Lipofectamine reagents (value=1) and expressed as fold-times signal increase. In the case of siRNA, the siRNA treated cells fluorescence was compared with siMOCK control fluorescence, while Cas9-RNP mediated knockout was measured against the fluorescence of untreated cells. In both siRNA and Cas9-RNP, values are expressed as % fluorescence reduction. Amphiphile concentration was 5 μM in all cases. All experiments were performed in triplicate.
# Tables 8-13 show the mean (triplicates) luminescent intensity (RLU) measured after the transfection of RLuc pDNA by different amphiphiles at different concentrations in a variety of cell lines. Background luminescence values, accounted by untransfected control cells, were subtracted for processing.
# [3] = test system: Hek293 cells expressing EGFP; assay: EGFP-targeting siRNA delivery (GFP silencing vs siMOCK), Hek293
# Experimental: To generate an EGFP expressing HeLa cell line, HeLa cells were transfected with EGFP pDNA (pEGFP-C1, Clontech) and stable transfectants were selected with 400 μg/mL of G-418 (Millipore). Green clones were selected by epifluorescence microscopy and tested for EGFP expression stability through several passages. […] All other EGFP-expressing cell lines were obtained in a similar way from parent non-EGFP-expressing cell lines.
# Cells expressing EGFP were seeded in a 96 well plate the day before the experiment at a concentration of 50,000 cell/mL (100 μL/w) in DMEM+10% FBS+1% Gln-Abt. For robotic library screening, the delivery of an EGFP-targeting siRNA (EGFP: enhanced green fluorescent protein, Ambion® Silencer® GFP Positive Control siRNA (siGFP) (AM4626)) in six different cell lines expressing EGFP was performed. […] The mixture was shaken for 30 min at room temperature (rt) before the addition to the cells. The cell medium was aspirated, and cells were washed twice with PBS. Finally, 50 μL of the solution of siRNA/amphiphile complexes were added to the cells and incubated for 4 h. After transfection, the medium was replaced by 100 μL of fresh DMEM supplemented with 10% FBS. The fluorescence knockdown was quantified after 72 h in a plate reader, by comparison with cells transfected with a non-targeting siRNA control (siMOCK, Silencer™ Negative Control No. 1 siRNA (siMOCK) (AM4611)). EGFP knockdown was compared with Lipofectamine® RNAiMAX silencing efficiency (30-60% depending on cell line, defined with a numeric value in the below tables). All experiments were done in triplicate.
# as §1
# Tables 20-25 show the mean (triplicates) percentage of GFP-silencing, accounted by fluorescence intensity decrease relative to a non-targeting siRNA (siMOCK) control, measured after the transfection of siRNA by different amphiphiles at different concentrations in a variety of cell lines. Background values, accounted by untreated control cells, were subtracted for processing.
Molecule,"mean luminescent intensity (RLuc pDNA) ([1]; Dodecanal, 10 μM) [RLU]","mean luminescent intensity (RLuc pDNA) ([1]; Dodecanal, 15 μM) [RLU]","mean luminescent intensity (RLuc pDNA) ([1]; Myristoleyl, 5 μM) [RLU]","mean luminescent intensity (RLuc pDNA) ([1]; Myristoleyl, 10 μM) [RLU]","mean luminescent intensity (RLuc pDNA) ([1]; Myristoleyl, 15 μM) [RLU]","mean luminescent intensity (RLuc pDNA) ([2]; Hela, Myristoleyl, 5 μM) [RLU]","mean luminescent intensity (RLuc pDNA) ([2]; Hela, Myristoleyl, 10 μM) [RLU]","mean luminescent intensity (RLuc pDNA) ([2]; Hela, Myristoleyl, 15 μM) [RLU]","percentage of GFP-silencing relative to siMOCK ([3]; Dodecanal, 5 μM) [%]","percentage of GFP-silencing relative to siMOCK ([3]; Dodecanal, 15 μM) [%]","percentage of GFP-silencing relative to siMOCK ([3]; Myristoleyl, 10 μM) [%]","percentage of GFP-silencing relative to siMOCK ([3]; Myristoleyl, 15 μM) [%]","mean luminescent intensity (RLuc pDNA) ([1]; Palmitoleyl, 5 μM) [RLU]","mean luminescent intensity (RLuc pDNA) ([1]; Petroselinyl, 5 μM) [RLU]","mean luminescent intensity (RLuc pDNA) ([1]; Petroselinyl, 15 μM) [RLU]","mean luminescent intensity (RLuc pDNA) ([2]; Hela, Palmitoleyl, 5 μM) [RLU]","mean luminescent intensity (RLuc pDNA) ([2]; Hela, Palmitoleyl, 10 μM) [RLU]","mean luminescent intensity (RLuc pDNA) ([2]; Hela, Petroselinyl, 5 μM) [RLU]","mean luminescent intensity (RLuc pDNA) ([1]; Petroselinyl, 10 μM) [RLU]","mean luminescent intensity (RLuc pDNA) ([2]; HeLa, Petroselinyl, 10 μM) [RLU]",also measured
"Ac-RK*LRRLLRK*-NH2 (Ac-RK(NHNH2)LRRLLRK(NHNH2)-NH2; not fully specified; printed as Ac-RK*LRRLLRK*-NH2; also: K*2,K*9: native or modified lysine (ε-amide to a linker)) [Peptide 9.2]",819,1099,−544,−623,−617,−600,−701,−707,14,3,10,−1,,,,,,,,,"mean luminescent intensity (RLuc pDNA) ([2]; Hela, Dodecanal, 10 μM): 13156 RLU; mean luminescent intensity (RLuc pDNA) ([2]; Hela, Dodecanal, 15 μM): 11603 RLU"
"Ac-RHLK*RLK*RRLK*RL-NH2 (Ac-RHLKRLKRRLKRL-NH2; not fully specified (residues 4, 7, 11); printed as Ac-RHLK*RLK*RRLK*RL-NH2; also: linker on K* not given here) [13(Arg-His)]",20219,2518,,,−246,−195,−333,−332,24,44,48,25,244732,105576,4534,5484,921,8590,,,"mean luminescent intensity (RLuc pDNA) ([1]; Dodecanal, 5 μM): 237160 RLU; mean luminescent intensity (RLuc pDNA) ([1]; Oleyl, 5 μM): 18755 RLU; mean luminescent intensity (RLuc pDNA) ([1]; Oleyl, 10 μM): 2608 RLU; percentage of GFP-silencing relative to siMOCK ([3]; Dodecanal, 10 μM): 39%; percentage of GFP-silencing relative to siMOCK ([3]; Oleyl, 10 μM): 39%; percentage of GFP-silencing relative to siMOCK ([3]; Oleyl, 15 μM): 47%; percentage of GFP-silencing relative to siMOCK ([3]; Petroselinyl, 5 μM): 30%; percentage of GFP-silencing relative to siMOCK ([3]; Petroselinyl, 10 μM): 5%; percentage of GFP-silencing relative to siMOCK ([3]; Petroselinyl, 15 μM): 18%"
"Ac-RK*LRRK*LRK*-NH2 (Ac-RK(NHNH2)LRRK(NHNH2)LRK(NHNH2)-NH2; not fully specified; printed as Ac-RK*LRRK*LRK*-NH2; also: K*2,K*6,K*9: native or modified lysine (ε-amide to a linker)) [Peptide 9.3]",1466,1854,16615,58572,19746,3600,18554,4014,19,40,10,43,,30301,76316,,940,1035,113431,1228,"mean luminescent intensity (RLuc pDNA) ([1]; Oleyl, 15 μM): 1940 RLU; mean luminescent intensity (RLuc pDNA) ([1]; Palmitoleyl, 15 μM): 141026 RLU; mean luminescent intensity (RLuc pDNA) ([2]; Hela, Dodecanal, 10 μM): 70716 RLU; mean luminescent intensity (RLuc pDNA) ([2]; Hela, Dodecanal, 15 μM): 303962 RLU; mean luminescent intensity (RLuc pDNA) ([2]; Hela, Oleyl, 10 μM): 5404 RLU; mean luminescent intensity (RLuc pDNA) ([2]; Hela, Oleyl, 15 μM): 1759 RLU; mean luminescent intensity (RLuc pDNA) ([2]; Hela, Palmitoleyl, 15 μM): 22617 RLU; mean luminescent intensity (RLuc pDNA) ([2]; Hela, Petroselinyl, 15 μM): 14602 RLU; percentage of GFP-silencing relative to siMOCK ([3]; Oleyl, 15 μM): 28%; percentage of GFP-silencing relative to siMOCK ([3]; Palmitoleyl, 10 μM): 17%; percentage of GFP-silencing relative to siMOCK ([3]; Palmitoleyl, 15 μM): 36%; percentage of GFP-silencing relative to siMOCK ([3]; Petroselinyl, 10 μM): 3%; percentage of GFP-silencing relative to siMOCK ([3]; Petroselinyl, 15 μM): −12%"
"CC(=O)N[C@@H](CCCNC(=N)N)C(=O)N[C@@H](CCCCNC(=O)CCCC(=O)NN)C(=O)N[C@@H](Cc1c[nH]cn1)C(=O)N[C@@H](CCCNC(=N)N)C(=O)N[C@@H](CCCCNC(=O)CCCC(=O)NN)C(=O)N[C@@H](CCCCNC(=O)CCCC(=O)NN)C(=O)N[C@@H](Cc1c[nH]cn1)C(N)=O [7.3(L-H), Ac-RK*HRK*K*H-NH2] (Ac-RK([Glutaryl-NHNH2])HRK([Glutaryl-NHNH2])K([Glutaryl-NHNH2])H-NH2)",,,193237,172603,42433,122581,115599,25022,,14,,,294813,147949,48178,226412,180751,282134,114522,107063,"mean luminescent intensity (RLuc pDNA) ([1]; Palmitoleyl, 10 μM): 248907 RLU; mean luminescent intensity (RLuc pDNA) ([1]; Palmitoleyl, 15 μM): 89543 RLU; pDNA delivery, times better than Lipofectamine 2000 ([1]; palmitoleyl aldehyde): up to 10 times; mean luminescent intensity (RLuc pDNA) ([2]; Hela, Palmitoleyl, 15 μM): 31589 RLU; mean luminescent intensity (RLuc pDNA) ([2]; Hela, Petroselinyl, 15 μM): 13233 RLU; percentage of GFP-silencing relative to siMOCK ([3]; Myristoleyl, 5 μM): −3%; percentage of GFP-silencing relative to siMOCK ([3]; Palmitoleyl, 10 μM): 6%"
"Ac-RHLK*RHK*RRLK*RH-NH2 (Ac-RHLKRHKRRLKRH-NH2; not fully specified (residues 4, 7, 11); printed as Ac-RHLK*RHK*RRLK*RH-NH2; also: linker on K* not given here) [13(3His)]",7176,,94125,,738,−294,−246,−405,,,,11,109244,19145,8961,8590,,122581,45000,115599,"mean luminescent intensity (RLuc pDNA) ([1]; Dodecanal, 5 μM): 22167 RLU; mean luminescent intensity (RLuc pDNA) ([2]; HeLa, Oleyl, 5 μM): 226412 RLU; mean luminescent intensity (RLuc pDNA) ([2]; Hela, Oleyl, 10 μM): 180751 RLU; mean luminescent intensity (RLuc pDNA) ([2]; Hela, Oleyl, 15 μM): 31589 RLU; mean luminescent intensity (RLuc pDNA) ([2]; Hela, Petroselinyl, 15 μM): 25022 RLU; percentage of GFP-silencing relative to siMOCK ([3]; Dodecanal, 10 μM): −11%; percentage of GFP-silencing relative to siMOCK ([3]; Oleyl, 10 μM): 2%"
